According to article PMC5931096, “A Phase I study of the novel immunomodulatory agent PG545 (pixatimod) in subjects with advanced solid tumours” (British Journal of Cancer, 2018):

Experiment: Phase I dose-escalation: safety, tolerability, DLT and MTD of weekly 1-h IV infusion
Type: in vivo
Description: The study was an open-label, multicentre, phase 1 dose-escalation study using a 3 + 3 design. The primary objective was to determine the MTD of weekly administered PG545 via IV infusion. Secondary objectives were to characterize safety, tolerability, clinical activity, PK and PD biomarkers.
Patients continued treatment until disease progression, unacceptable toxicity or withdrawal (either voluntarily or investigator-decision).
All patients were assessed for safety, those who received at least one dose of PG545 were evaluated for efficacy. Safety assessment included the incidence of all adverse events (AEs), irrespective of relationship to study drug, according to the National Cancer Institute Common Terminology Criteria for Adverse Events, version 4.0, and the incidence of patients experiencing dose modifications and/or premature discontinuation of study drug. Dose-limiting toxicities (DLTs) used to determine the MTD were defined as occurring during Cycle 1 of treatment only and related to PG545 according to investigator assessment. If no DLT occurred in the first three subjects, the next three-subject cohort was enrolled at the next highest available dose level. If a single DLT occurred, an additional three subjects was enrolled at the same dose level. Dose escalation continued until two subjects of the cohort experienced a DLT; this was defined as the toxic dose level. The dose-escalation phase was completed and MTD determined by reducing the dose to the next lowest dose compared to the toxic dose and expanding this cohort to at least 6 subjects.

[1] = Moderate, Unrelated, Safety Set

## CC(C)CCC[C@@H](C)[C@H]1CC[C@H]2[C@@H]3CC[C@H]4C[C@@H](O[C@@H]5O[C@H](COS(=O)(=O)O)[C@@H](O[C@H]6O[C@H](COS(=O)(=O)O)[C@@H](O[C@H]7O[C@H](COS(=O)(=O)O)[C@@H](O[C@H]8O[C@H](COS(=O)(=O)O)[C@@H](OS(=O)(=O)O)[C@H](OS(=O)(=O)O)[C@H]8OS(=O)(=O)O)[C@H](OS(=O)(=O)O)[C@H]7OS(=O)(=O)O)[C@H](OS(=O)(=O)O)[C@H]6OS(=O)(=O)O)[C@H](OS(=O)(=O)O)[C@H]5OS(=O)(=O)O)CC[C@]4(C)[C@H]3CC[C@]12C [PG545]
[1]
  TEAE: General disorders and administration site conditions: 5 (21.7%)
  TEAE: Groin pain: 1 (4.3%)
  TEAE: Headache: 2 (8.7%)
  TEAE: Hypoalbuminaemia: 1 (4.3%)
  TEAE: Infections and infestations: 1 (4.3%)
  TEAE: Insomnia: 1 (4.3%)
  TEAE: Intestinal obstruction: 1 (4.3%)
  TEAE: Investigations: 3 (13.0%)
  TEAE: Malaise: 1 (4.3%)
  TEAE: Metabolism and nutritional disorders: 4 (17.4%)
  TEAE: Musculoskeletal and connective tissue disorders: 6 (26.1%)
  TEAE: Musculoskeletal pain: 1 (4.3%)
  TEAE: Nausea: 2 (8.7%)
  TEAE: Nervous system disorders: 2 (8.7%)
  TEAE: Neutrophil count increased: 1 (4.3%)
  TEAE: Pain in extremity: 1 (4.3%)
  TEAE: Platelet count increased: 1 (4.3%)
  TEAE: Psychiatric disorders: 2 (8.7%)
  TEAE: Respiratory, thoracic and mediastinal disorders: 4 (17.4%)
  TEAE: Upper respiratory tract infection: 1 (4.3%)
  TEAE: White blood cell count increased: 1 (4.3%)
Overall, N = 23
  Acute pulmonary oedema, related AE leading to discontinuation: 1 (4) n (%)
  Acute pulmonary oedema, related serious AE: 1 (4) n (%)
  Acute pulmonary oedema, related severe AE: 1 (4) n (%)
  Blood cholesterol increased, related severe AE: 1 (4) n (%)
  Blood cholesterol increased, treatment-related AE: 2 (9) n (%)
  Blood pressure increased, related severe AE: 1 (4) n (%)
  Chills, related AE leading to discontinuation: 1 (4) n (%)
  Chills, related severe AE: 2 (9) n (%)
  Chills, treatment-related AE: 5 (22) n (%)
  Decreased appetite, treatment-related AE: 5 (22) n (%)
  Diarrhoea, treatment-related AE: 4 (17) n (%)
  Epistaxis, related AE leading to discontinuation: 1 (4) n (%)
  Epistaxis, related serious AE: 1 (4) n (%)
  Epistaxis, related severe AE: 1 (4) n (%)
  Fatigue, related severe AE: 2 (9) n (%)
  Fatigue, treatment-related AE: 5 (22) n (%)
  Headache, treatment-related AE: 2 (9) n (%)
  Hypercholesterolemia, treatment-related AE: 2 (9) n (%)
  Hyperlipidaemia, related severe AE: 1 (4) n (%)
  Hypertension, related AE leading to discontinuation: 1 (4) n (%)
  Hypertension, related serious AE: 1 (4) n (%)
  Hypertension, related severe AE: 5 (22) n (%)
  Hypertension, treatment-related AE: 6 (26) n (%)
  Hypovolaemia, related serious AE: 1 (4) n (%)
  Infusion-related reaction, related serious AE: 1 (4) n (%)
  Infusion-related reaction, related severe AE: 1 (4) n (%)
  Infusion-related reaction, treatment-related AE: 5 (22) n (%)
  Injection site reaction, treatment-related AE: 2 (9) n (%)
  Nausea, treatment-related AE: 5 (22) n (%)
  Pyrexia, related AE leading to discontinuation: 1 (4) n (%)
  Pyrexia, related serious AE: 1 (4) n (%)
  Pyrexia, related severe AE: 1 (4) n (%)
  Pyrexia, treatment-related AE: 5 (22) n (%)
Severe, Related, Safety Set
  TEAE: Acute pulmonary oedema: 1 (4.3%)
  TEAE: At least one event: 11 (47.8%)
  TEAE: Blood cholesterol increased: 1 (4.3%)
  TEAE: Blood pressure increased: 1 (4.3%)
  TEAE: Chills: 2 (8.7%)
  TEAE: Epistaxis: 1 (4.3%)
  TEAE: Fatigue: 2 (8.7%)
  TEAE: General disorders and administration site conditions: 4 (17.5%)
  TEAE: Hyperlipidaemia: 1 (4.3%)
  TEAE: Hypertension: 5 (21.7%)
  TEAE: Infusion related reaction: 1 (4.3%)
  TEAE: Injury, poisoning and procedural complications: 1 (4.3%)
  TEAE: Investigations: 2 (8.7%)
  TEAE: Metabolism and nutritional disorders: 1 (4.3%)
  TEAE: Pyrexia: 1 (4.3%)
  TEAE: Respiratory, thoracic and mediastinal disorders: 2 (8.7 %)
  TEAE: Vascular disorders: 5 (21.7%)
Severe, Unrelated, Safety Set
  TEAE: AST increased: 1 (4.3%)
  TEAE: Anaemia: 1 (4.3%)
  TEAE: At least one event: 7 (30.4%)
  TEAE: Blood ALP increased: 2 (8.7%)
  TEAE: Blood and lymphatic system disorders: 1 (4.3%)
  TEAE: Chest pain: 1 (4.3%)
  TEAE: Constipation: 1 (4.3%)
  TEAE: Dehydration: 1 (4.3%)
  TEAE: Dysuria: 1 (4.3%)
  TEAE: GGT increased: 1 (4.3%)
  TEAE: Gastrointestinal disorders: 2 (8.7 %)
  TEAE: General disorders and administration site conditions: 1 (4.3%)
  TEAE: Hyponatraemia: 1 (4.3%)
  TEAE: Infections and infestations: 1 (4.3%)
  TEAE: Investigations: 2 (8.7%)
  TEAE: Lower respiratory tract infection: 1 (4.3%)
  TEAE: Metabolism and nutritional disorders: 2 (8.7%)
  TEAE: Renal and urinary disorders: 1 (4.3%)
  TEAE: Small intestinal obstruction: 1 (4.3%)
All cohorts
  Serious adverse events (SAEs), number: 12
  Treatment-related hypertension, occurrences: six
In vivo
  SAEs resulting in withdrawal or discontinuation: Five
Investigator assessment
  SAEs possibly, likely or certainly related to PG545: Six
Of the 12 SAEs
  SAEs graded mild: one
  SAEs graded severe: nine
Of the 12 SAEs, death due to disease progression
  SAEs graded fatal: two
transient
  Duration of hypertensive episodes: < 24 h
Weekly 1-h IV infusion
  Maximum-tolerated dose (MTD): 100 mg
  Toxic dose: 150 mg
